Measurements from patent US20220033407A1, “N-(pyridin-2-ylsulfonyl)cyclopropanecarboxamide Derivatives and their Use in the Treatment of Disease” (NOVARTIS AG, priority 2018, published 2022).

What was measured:
delF508-CFTR = biological target: T1, delF508-CFTR (Homo sapiens, UniProt P13569, DEL508-508); experiment: delF508-CFTR functional activity in primary human bronchial epithelial cells (HBECs), Multi-Transepithelial Clamp Circuit (MTECC-24) assay, equivalent short circuit current; type: cell-based; conditions: primary CF HBECs; for MTECC24 CFHBEC-Amax %: relative to reference combination 2 μM 3-(6-(1-(2,2-difluorobenzo[d][1,3]dioxol-5-yl)cyclopropane-1-carboxamido)-3-methylpyridin-2-yl)benzoic acid (24 h) + 0.5 μM N-(2,4-di-tert-butyl-5-hydroxyphenyl)-4-oxo-1,4-dihydroquinoline-3-carboxamide; for EC50: test compound added 24 h before assay, potentiator (S)-3-amino-6-methoxy-N-(3,3,3-trifluoro-2-hydroxy-2-methylpropyl)-5-(trifluoromethyl)picolinamide present at assay, mean of at least two replicates, read-out: MTECC24 CFHBEC-EC50
T1 construct: functional activity of the CFTR channel (Chloride ion transport) in patient derived primary human bronchial epithelial cells; host or cells: patient-derived primary human bronchial epithelial cells (HBECs), delF508-CFTR
How it was run: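 Patient-derived delF508 HBECs, grown at air-liquid interface about two weeks, were corrected with compound basolaterally for 24 h. Compound was then re-added apically and basolaterally in HEPES pH7.4 assay medium, with sequential modulators including forskolin and the picolinamide potentiator. Ieq was recorded, normalised to 0.1% DMSO wells, and EC50 fitted from 10-point curves.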

delF508-CFTR-HRP = biological target: T2, delF508-CFTR-HRP (Homo sapiens, UniProt P13569, DEL508-508); experiment: Measurement of delF508-CFTR-HRP surface expression in CFBE41o- cells (HRP luminescence); type: cell-based; conditions: for Emax: CFBE41o-, read-out: DelF508-CFTR-HRP Amax %; for EC50: mean of at least two replicates;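 as to DelF508-CFTR-HRP Amax %: percent efficacy relative to a reference CFTR corrector compound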
T2 construct: expressed in transfected cells
How it was run: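 Stably transfected CFBE41o- cells carrying HRP in the fourth extracellular loop of delF508-CFTR, induced with 500 ng/mL doxycycline for 48 h, then compound-treated 24 h at 37° C (10-point, 3-fold, top 10 μM). Surface HRP detected by luminescent substrate; EC50 from logistic fit, triplicates, normalized to lowest-concentration median.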

T1 sequence (P13569 with tags, fused parts or gaps DEL508-508): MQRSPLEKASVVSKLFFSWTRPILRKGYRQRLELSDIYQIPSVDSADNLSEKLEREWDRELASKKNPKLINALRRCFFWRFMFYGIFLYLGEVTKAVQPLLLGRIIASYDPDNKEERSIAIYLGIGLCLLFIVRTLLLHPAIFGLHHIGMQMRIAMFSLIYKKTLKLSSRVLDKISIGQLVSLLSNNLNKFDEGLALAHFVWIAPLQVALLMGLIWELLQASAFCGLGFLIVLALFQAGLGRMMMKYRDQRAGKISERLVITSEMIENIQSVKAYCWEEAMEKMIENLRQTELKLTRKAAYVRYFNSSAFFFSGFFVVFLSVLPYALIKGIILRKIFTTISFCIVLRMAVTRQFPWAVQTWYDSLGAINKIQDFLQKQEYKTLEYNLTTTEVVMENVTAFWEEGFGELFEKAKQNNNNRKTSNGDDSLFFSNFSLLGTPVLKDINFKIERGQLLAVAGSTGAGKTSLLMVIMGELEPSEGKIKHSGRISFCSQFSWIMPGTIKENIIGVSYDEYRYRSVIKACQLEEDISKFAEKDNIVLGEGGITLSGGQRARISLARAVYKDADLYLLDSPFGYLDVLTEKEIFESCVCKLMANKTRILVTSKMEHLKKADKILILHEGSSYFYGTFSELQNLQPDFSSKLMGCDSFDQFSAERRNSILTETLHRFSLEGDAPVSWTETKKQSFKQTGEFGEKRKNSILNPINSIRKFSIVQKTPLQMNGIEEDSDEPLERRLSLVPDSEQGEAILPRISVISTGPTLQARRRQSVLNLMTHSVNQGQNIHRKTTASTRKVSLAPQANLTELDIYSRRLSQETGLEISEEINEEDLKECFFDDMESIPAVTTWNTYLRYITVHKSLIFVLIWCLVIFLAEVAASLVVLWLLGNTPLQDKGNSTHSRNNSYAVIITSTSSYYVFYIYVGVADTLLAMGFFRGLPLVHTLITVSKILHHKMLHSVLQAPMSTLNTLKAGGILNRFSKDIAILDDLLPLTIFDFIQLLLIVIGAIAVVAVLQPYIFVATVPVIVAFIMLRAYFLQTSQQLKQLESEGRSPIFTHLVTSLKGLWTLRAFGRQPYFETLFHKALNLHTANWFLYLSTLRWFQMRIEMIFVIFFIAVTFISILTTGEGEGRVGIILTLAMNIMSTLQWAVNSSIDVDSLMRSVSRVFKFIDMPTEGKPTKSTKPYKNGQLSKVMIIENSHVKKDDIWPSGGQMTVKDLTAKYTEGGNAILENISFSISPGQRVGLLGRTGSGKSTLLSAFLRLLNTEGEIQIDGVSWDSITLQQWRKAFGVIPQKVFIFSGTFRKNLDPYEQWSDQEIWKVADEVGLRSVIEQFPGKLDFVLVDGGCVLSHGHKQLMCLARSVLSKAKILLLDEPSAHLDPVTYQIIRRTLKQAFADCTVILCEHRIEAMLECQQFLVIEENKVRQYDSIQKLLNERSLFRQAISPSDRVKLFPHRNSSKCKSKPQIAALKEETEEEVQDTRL
T2 sequence (P13569 with tags, fused parts or gaps DEL508-508): as above

SMILES	MTECC24 CFHBEC-Amax % (delF508-CFTR) [%]	EC50 (delF508-CFTR) [µM]	Emax (delF508-CFTR-HRP) [%]	EC50 (delF508-CFTR-HRP) [µM]
Cc1ccc([C@H]2CC[C@@H](F)CC2)c(OC2(C(=O)NS(=O)(=O)c3cccc(N4CC(C)(O)C4)n3)CC2)c1 (single isomer, unassigned) [Example 4-23, 1-(2-(Cis-4-fluorocyclohexyl)-5-methylphenoxy)-N-((6-(3-hydroxy-3-methylazetidin-1-yl)pyridin-2-yl)sulfonyl)cyclopropane-1-carboxamide]	138	0.167	292	4.16
Cc1ccc(C2CCCCC2)c(OC2(C(=O)NS(=O)(=O)c3cccc(N4CCC(C)(N)CC4)n3)CC2)c1 [Example 2-9, N-((6-(4-Amino-4-methylpiperidin-1-yl)pyridin-2-yl)sulfonyl)-1-(2-cyclohexyl-5-methylphenoxy)cyclopropanecarboxamide]	121	0.103	253	2.57
Cc1ccc(C2CCCCC2)c(OC2(C(=O)NS(=O)(=O)c3cccc(N4CCNC(=O)CC4)n3)CC2)c1 [Example 2-40, 1-(2-Cyclohexyl-5-methylphenoxy)-N-((6-(5-oxo-1,4-diazepan-1-yl)pyridin-2-yl)sulfonyl)cyclopropanecarboxamide]	76	0.121	123	3.79
Cc1ccc(C2CCCCC2)c(OC2(C(=O)NS(=O)(=O)c3cccc(N4CCC(C)(NC(=O)OC(C)(C)C)CC4)n3)CC2)c1 [Example 2-8, Tert-butyl (1-(6-(N-(1-(2-cyclohexyl-5-methylphenoxy)cyclopropanecarbonyl)sulfamoyl)pyridin-2-yl)-4-methylpiperidin-4-yl)carbamate]	60	0.063	716	0.54
Cc1ccc(C2CCCCC2)c(OC2(C(=O)NS(=O)(=O)c3cccc(N4CCN(C(=O)OC(C)(C)C)CC4)n3)CC2)c1 [Example 2-34, Tert-butyl 4-(6-(N-(1-(2-cyclohexyl-5-methylphenoxy)cyclopropanecarbonyl)sulfamoyl)pyridin-2-yl)piperazine-1-carboxylate]	57	0.015	366	1.1
Cc1ccc(C2CCCCC2)c(OC2(C(=O)NS(=O)(=O)c3cccc(N4CCC(CO)(NC(=O)OC(C)(C)C)CC4)n3)CC2)c1 [Example 2-22, Tert-butyl (1-(6-(N-(1-(2-cyclohexyl-5-methylphenoxy)cyclopropanecarbonyl)sulfamoyl)pyridin-2-yl)-4-(hydroxymethyl)piperidin-4-yl)carbamates]	90	0.017	674	2.24
Cc1ccc(C2CCCCC2)c(OC2(C(=O)NS(=O)(=O)c3cccc(N4CCNC(=O)C4)n3)CC2)c1 [Example 2-33, 1-(2-Cyclohexyl-5-methylphenoxy)-N-((6-(3-oxopiperazin-1-yl)pyridin-2-yl)sulfonyl)cyclopropanecarboxamide]	46	0.066	114	3.96
Cc1ccc(C2CCCCC2)c(OC2(C(=O)NS(=O)(=O)c3cccc(N4CC(C)(O)C4)n3)CC2)c1 [Example 2-16, 1-(2-Cyclohexyl-5-methylphenoxy)-N-((6-(3-hydroxy-3-methylazetidin-1-yl)pyridin-2-yl)sulfonyl)cyclopropanecarboxamide]	101	0.012	642	2.52
Cc1ccc(C2CCCCC2)c(OC2(C(=O)NS(=O)(=O)c3cccc(N4CCNCC4)n3)CC2)c1 [Example 2-31, 1-(2-Cyclohexyl-5-methylphenoxy)-N-((6-(piperazin-1-yl)pyridin-2-yl)sulfonyl)cyclopropanecarboxamide]	89	0.421	96	3.25
Cc1ccc(C2CCCCC2)c(OC2(C(=O)NS(=O)(=O)c3cccc(N4CCO[C@@H](C)C4)n3)CC2)c1 [Example 2-52, (S)-1-(2-Cyclohexyl-5-methylphenoxy)-N-((6-(2-methylmorpholino)pyridin-2-yl)sulfonyl)cyclopropane-1-carboxamide]	75	0.007	416	1.29
Cc1ccc(C2CCCCC2)c(OC2(C(=O)NS(=O)(=O)c3cccc(N4CCC(C)(C#N)CC4)n3)CC2)c1 [Example 2-15, N-((6-(4-cyano-4-methylpiperidin-1-yl)pyridin-2-yl)sulfonyl)-1-(2-cyclohexyl-5-methylphenoxy)cyclopropanecarboxamide]	101	0.003	284	0.94
Cc1ccc(C2CCCCC2)c(OC2(C(=O)NS(=O)(=O)c3cccc(N4CCC(C)(O)CC4)n3)CC2)c1 [Example 2-49, 1-(2-Cyclohexyl-5-methylphenoxy)-N-((6-(4-hydroxy-4-methylpiperidin-1-yl)pyridin-2-yl)sulfonyl)cyclopropane-1-carboxamide]	102	0.005	391	1.05
Cc1ccc(C2CCCCC2)c(OC2(C(=O)NS(=O)(=O)c3cccc(N4CCC(N)(C(F)(F)F)CC4)n3)CC2)c1 [Example 2-17, N-((6-(4-Amino-4-(trifluoromethyl)piperidin-1-yl)pyridin-2-yl)sulfonyl)-1-(2-cyclohexyl-5-methylphenoxy)cyclopropanecarboxamide]	90	0.004	503	0.73

The remaining lines, values ahead:

MTECC24 CFHBEC-Amax % (delF508-CFTR) [%]	EC50 (delF508-CFTR) [µM]	Emax (delF508-CFTR-HRP) [%]	EC50 (delF508-CFTR-HRP) [µM]	SMILES
79.2	1.44	350	2.67	Cc1ccc(OC2Cc3ccccc3C2)c(OC2(C(=O)NS(=O)(=O)c3cccc(N4CC[C@H](O)C4)n3)CC2)c1 [Example 6-10, (S)-1-(2-((2,3-dihydro-1H-inden-2-yl)oxy)-5-methylphenoxy)-N-((6-(3-hydroxypyrrolidin-1-yl)pyridin-2-yl)sulfonyl)cyclopropanecarboxamide]
133.4	0.396	580	1.64	Cc1ccc(N2CCC3(CC2)CC3)c(OC2(C(=O)NS(=O)(=O)c3cccc(N4CC[C@H](O)C4)n3)CC2)c1 [Example 9-11, (S)—N-((6-(3-Hydroxypyrrolidin-1-yl)pyridin-2-yl)sulfonyl)-1-(5-methyl-2-(6-azaspiro[2.5]octan-6-yl)phenoxy)cyclopropanecarboxamide]
81.1	0.213	543	1.29	C[C@@H]1CN(c2cccc(S(=O)(=O)NC(=O)C3(Oc4cc(Cl)ccc4C4CC5(CCC5)C4)CC3)n2)CCO1 [Example 7-13, (R)-1-(5-Chloro-2-(spiro[3.3]heptan-2-yl)phenoxy)-N-((6-(2-methylmorpholino)pyridin-2-yl)sulfonyl)cyclopropane-1-carboxamide]
138.2	0.865	317	2.2	O=C(NS(=O)(=O)c1cccc(N2CC[C@H](O)C2)n1)C1(Oc2cc(Cl)ccc2N2CCC(C(F)(F)F)CC2)CC1 [Example 9-16, (S)-1-(5-Chloro-2-(4-(trifluoromethyl)piperidin-1-yl)phenoxy)-N-((6-(3-hydroxypyrrolidin-1-yl)pyridin-2-yl)sulfonyl)cyclopropanecarboxamide]
87	0.076	298	3.11	Cc1ccc(-c2cccc(C(F)F)c2)c(OC2(C(=O)NS(=O)(=O)c3cccc(N4CC[C@H](O)C4)n3)CC2)c1 [Example 5-9, (S)-1-((3′-(Difluoromethyl)-4-methyl-[1,1′-biphenyl]-2-yl)oxy)-N-]
88	0.016	503	1.95	Cc1ccc(-c2cccc(C(F)(F)F)c2)c(OC2(C(=O)NS(=O)(=O)c3cccc(N4CC[C@H](O)C4)n3)CC2)c1 [Example 5-1, (S)-N-((6-(3-Hydroxypyrrolidin-1-yl)pyridin-2-yl)sulfonyl)-1-((4-methyl-3′-(trifluoromethyl)-[1,1′-biphenyl]-2-yl)oxy)cyclopropane-1-carboxamide]
111.4	0.852	297	2.71	CC(C)CCOc1ccc(Cl)cc1OC1(C(=O)NS(=O)(=O)c2cccc(N3CC[C@H](O)C3)n2)CC1 [Example 6-12, (S)-1-(5-chloro-2-(isopentyloxy)phenoxy)-N-((6-(3-hydroxypyrrolidin-1-yl)pyridin-2-yl)sulfonyl)cyclopropanecarboxamide]
120.7	0.166	442	0.86	CN(C)c1cccc(S(=O)(=O)NC(=O)C2(Oc3cc(Cl)ccc3C3CC4(CCC4)C3)CC2)n1 [Example 7-15, 1-(5-Chloro-2-(spiro[3.3]heptan-2-yl)phenoxy)-N-((6-(dimethylamino)pyridin-2-yl)sulfonyl)cyclopropane-1-carboxamide]
